Results on three compounds are retold here after PubChem BioAssay AID1963449 (Molecular Pharmacology Branch, DTP, NCI, 2024).

As a reminder, the IC50 is the concentration that inhibits the measured activity by half. Broadly, the viability, T/C is the result in the treated group divided by that in the control group, in per cent.

The structures appear in SMILES notation. Some results are limits rather than exact numbers.

The test system of the assay is 596521-263-R-J1-PDC complex spheroid growth. In words: Anticancer human tumor 596521-263-R-J1-PDC patient-derived soft tissue sarcoma cell line growth inhibition [Asc]. Conditions: for viability, T/C: stronger effect = lower value. The protocol:
Multicellular complex tumor spheroid response to apoptosis pathway targeting inhibitors Alrizomadlin, Pelcitoclax, and Dasminapant in combination with a variety of drugs and investigational agents in selected tumor cell lines
The MDM2 inhibitor alrizomadlin, the Bcl-2/Bcl-xL inhibitor pelcitoclax, and the IAPs inhibitor dasminapant were evaluated both individually and in combination with standard of care and investigational anticancer small molecules within a complex spheroid model of solid tumors. . Complex spheroids include a stromal component modeled by human endothelial cells (HUVEC) and fibroblasts modeled by human mesenchymal stem cells (MSCs). The concentration ranges selected for each drug and investigational agent were based upon clinically achievable concentrations if the clinical Cmax of the agent was known.
Compounds. The drugs and investigational agents: alrizomadlin (APG-115; NSC831270), pelcitoclax (APG-1252; NSC835773), dasminapant (APG-1387;NSC834197), TAK-243 (NSC785004), copanlisib (NSC809693), olaparib (NSC753686), talazoparib (NSC767125), cobimetinib (NSC 768068), eltanexor (KPT-8602, NSC 794443), abemaciclib (NSC 768073), sotorasib (NSC818433), adagrasib (NSC 831453), MRTX-1133 (NSC 836407), Iadademestat (ORY1001, NSC 806812), and RMC-4630 (NSC839698), were obtained from the NCI Developmental Therapeutics Program Chemical Repository. The FDA-approved anticancer drug set is available from the Developmental Therapeutics Program at https://dtp.cancer.gov/organization/dscb/obtaining/available plates.htm. […] The stock solutions were prepared in dimethyl sulfoxide (DMSO, Sigma-Aldrich, St. Louis, MO, cat. D2650) at 800-fold the tested concentration and stored at -70 degrees C prior to their use. All drugs and investigational agents were tested over a range starting from a high concentration at or near the clinical Cmax and decreasing in half-log increments. If the clinical Cmax for an agent had not been determined, the highest concentration tested was 10 microM.
The patient-derived cancer (PDC) cell lines include five colon adenocarcinomas: 186277-243-T-J2-PDC, 616215-338-R-J1-PDC, 439559-082-T-J2-PDC, 463943-066-T-J2-PDC, and 519858-162-T-J1-PDC; three pancreatic carcinomas: 323965-272-R-J2-PDC, 521955-158-R6-J3-PDC, and 521955-158-R2-J5-PDC; two uterine sarcomas: 327498-152-R-J2-PDC and 993429-296-R-J1-PDC; two rhabdomyosarcomas: 755483-174-R-J1-PDC and 772245-204-R-J1-PDC; two soft tissue sarcomas: 126254-015-R-J1-PDC and 494315-158-R-J1-PDC; two malignant fibrous histiocytomas: 317291-083-R-J1-PDC and 596521-263-R-J1-PDC; two breast carcinomas: 171881-019-R-J1-PDC and 885512-296-R-J2-PDC; and one ovarian carcinoma: 6556581-035-R-J-PDC were obtained from the NCI PDMR, (https://pdmr.cancer.gov). The established cell lines HSSY-2 synovial sarcoma (RRID:CVCL 8719), SYO-1 synovial sarcoma (RRID:CVCL_7146), MPNST malignant peripheral neural sheath tumor were obtained from the Sloan Kettering Institute. The following established cell lines were purchased from the American Type Culture Collection (ATCC, Manassas, VA), Sor the received from the NCI repository:, PANC-1 pancreatic carcinoma (CRL-1469, RRID:CVCL_0480), OVCAR-5 ovarian carcinoma (RRID:CVCL_1628), OVCAR-8 ovarian carcinoma (RRID:CVCL_1629), , MCF-7 breast carcinoma (CRL-12584, RRID:CVCL_0031), MDA-MB-231 breast carcinoma (CRL-12532, RRID:CVCL_0062), NCI-H1876 small cell lung carcinoma (CRL-5902, RRID:CVCL_1503), NCI-H510A small cell lung carcinoma (HTB-184, RRID:CVCL_1565), NCI-H1417 (CRL-5869, RRID:CVCL_1469), and NCI-H196 small cell lung carcinoma (CRL-5823, RRID:CVCL_1509). Dr. Peter Houghton (Greehey Children's Cancer Research Institute, University of Texas Health Science Center, San Antonio, TX) provided Rh-18 rhabdomyosarcoma (RRID:CVCL_1659). Pooled donor human umbilical vein endothelial cells (HUVEC, Lonza, cat. CC-2519) and human mesenchymal stem cells (hMSC, Lonza, cat. PT-2501) were purchased from Lonza (Walkersville, MD).
Cell Culture. […]
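Also: spheroids exposed to compounds for 7 days.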

Consider `NC(=O)C(=Cn1cnc(-c2cc(C(F)(F)F)cc(C(F)(F)F)c2)n1)c1cncnc1` + CNC(C)C(=O)NC1CN(S(=O)(=O)c2cccc(S(=O)(=O)N3CCC4CCC(C(=O)NC(c5ccccc5)c5ccccc5)N4C(=O)C(NC(=O)C(C)NC)C3)c2)CCC2CCC(C(=O)NC(c3ccccc3)c3ccccc3)N2C1=O, for which the 50% inhibitory concentration (IC50) reads like this: (curve of first compound, second compound 0.00316 µM) 20.4 nM; (curve of first compound, second compound 0.01 µM) 25.6 nM; (curve of first compound, second compound 0.0316 µM) 21.4 nM; (curve of first compound, second compound 0.1 µM) 18.1 nM; (curve of first compound, second compound 0.316 µM) 17.6 nM; (curve of first compound, second compound 1 µM) 12.5 nM. The viability, T/C was 99.8% (second compound 0.00316 µM, first compound 0.000949 µM); 94.3% (second compound 0.00316 µM, first compound 0.003 µM); 67.1% (second compound 0.00316 µM, first compound 0.00949 µM); 42.8% (second compound 0.00316 µM, first compound 0.03 µM); 16.1% (second compound 0.00316 µM, first compound 0.0949 µM); 10.4% (second compound 0.00316 µM, first compound 0.3 µM). The viability, T/C (second compound 0.01 µM, first compound 0.000949 µM) was 101%; the viability, T/C (second compound 0.01 µM, first compound 0.003 µM) is 101%; the viability, T/C (second compound 0.01 µM, first compound 0.00949 µM) is 84.3%; the viability, T/C (second compound 0.01 µM, first compound 0.03 µM) is 44.9%; the viability, T/C (second compound 0.01 µM, first compound 0.0949 µM) was 14.8%; the viability, T/C (second compound 0.01 µM, first compound 0.3 µM) is 9.7%. Also, the viability, T/C (second compound 0.0316 µM, first compound 0.000949 µM) was 102%; the viability, T/C (second compound 0.0316 µM, first compound 0.003 µM) was 93.7%; the viability, T/C (second compound 0.0316 µM, first compound 0.00949 µM) is 75.8%; the viability, T/C (second compound 0.0316 µM, first compound 0.03 µM) was 38.6%; the viability, T/C (second compound 0.0316 µM, first compound 0.0949 µM) is 18.7%; the viability, T/C (second compound 0.0316 µM, first compound 0.3 µM) was 10.5%. Further, the viability, T/C is 93.6% (second compound 0.1 µM, first compound 0.000949 µM); 89.4% (second compound 0.1 µM, first compound 0.003 µM); 67.5% (second compound 0.1 µM, first compound 0.00949 µM); 35.6% (second compound 0.1 µM, first compound 0.03 µM); 14.6% (second compound 0.1 µM, first compound 0.0949 µM); 5.92% (second compound 0.1 µM, first compound 0.3 µM). The viability, T/C (second compound 0.316 µM, first compound 0.000949 µM) was 95.3%; the viability, T/C (second compound 0.316 µM, first compound 0.003 µM) was 76.8%; the viability, T/C (second compound 0.316 µM, first compound 0.00949 µM) was 71.3%; the viability, T/C (second compound 0.316 µM, first compound 0.03 µM) was 33.8%; the viability, T/C (second compound 0.316 µM, first compound 0.0949 µM) is 14.4%; the viability, T/C (second compound 0.316 µM, first compound 0.3 µM) was 6.61%. For the same compound, the viability, T/C (second compound 1 µM, first compound 0.000949 µM) was 85.8%; the viability, T/C (second compound 1 µM, first compound 0.003 µM) was 81.8%; the viability, T/C (second compound 1 µM, first compound 0.00949 µM) is 56.1%; the viability, T/C (second compound 1 µM, first compound 0.03 µM) was 27.3%; the viability, T/C (second compound 1 µM, first compound 0.0949 µM) is 11.2%; the viability, T/C (second compound 1 µM, first compound 0.3 µM) is 7.61%.
For the compound `CCN1C(C(=O)NC23CCC(C(=O)O)(CC2)CC3)C(c2cccc(Cl)c2F)C2(C(=O)Nc3cc(Cl)ccc32)C12CCCCC2` (centres undefined), the viability, T/C (compound 0.00949 µM) was 103% [middle of 8 runs]; the viability, T/C (compound 0.03 µM) was 101% [middle of 8 runs]; the viability, T/C (compound 0.0949 µM) is 103% [middle of 8 runs]; the viability, T/C (compound 0.3 µM) is 105% [middle of 8 runs]; the viability, T/C (compound 0.949 µM) was 102% [middle of 8 runs]; the viability, T/C (compound 3 µM) was 95.7% [middle of 8 runs]. In addition, the concentration for half-maximal inhibition (IC50) reads like this: (compound alone, run of 11/07/2022) above 3000 nM; (curve of compound) above 3000 nM.
With `CNC(C)C(=O)NC1CN(S(=O)(=O)c2cccc(S(=O)(=O)N3CCC4CCC(C(=O)NC(c5ccccc5)c5ccccc5)N4C(=O)C(NC(=O)C(C)NC)C3)c2)CCC2CCC(C(=O)NC(c3ccccc3)c3ccccc3)N2C1=O` (centres undefined), the viability, T/C runs as follows: (compound 0.0316 µM) 89.6% [middle of 6 runs]; (compound 0.1 µM) 87.5% [middle of 6 runs]; (compound 1 µM) 77.4% [middle of 6 runs]. In addition, the IC50 (curve of compound) was above 1000 nM.
